IC50 and solubility data for 5 molecules are collected here from ChEMBL document CHEMBL4033699, “Insights into the myosin II inhibitory potency of A-ring-modified (S)-blebbistatin analogs” (Bioorg Med Chem Lett, 2017).

For orientation: IC50 means the point on the concentration scale where inhibition reaches its midpoint. Low values mean higher potency, high ones lower potency. The term solubility denotes the concentration that dissolves in the medium under given conditions. High values mean much dissolved substance, low ones little dissolved substance.

Data set [1] is described as follows: Inhibition of F-actin activated rabbit full length myosin 2 ATPase activity after 1 hr by CytoPhos reagent based assay. Details: species or system Oryctolagus cuniculus.
The nature of data set [2]: Solubility of the compound in Tris-HCl at pH 7.5. The class given is physicochemical. Particulars: Tris-HCl buffer.

In data set [1], `Cc1ccc2c(c1)C(=O)[C@]1(O)CCN(c3ccccc3)C1=N2` displayed an IC50 of 1.02 µM. In data set [2], this molecule displayed a solubility below 100 µM.

Consider `C=CCN1CCc2cc3c(cc21)N=C1N(c2ccccc2)CC[C@@]1(O)C3=O`, for which half-maximal inhibition in data set [1] (IC50) required 8.46 µM. In data set [2], this molecule came in with a solubility below 40 µM.

For `O=C1c2cc3c(cc2N=C2N(c4ccccc4)CC[C@@]12O)NCC3`, in data set [1], inhibition was half-maximal at 14.5 µM (IC50). Moreover, the solubility in data set [2] was below 50 µM.

For `O=C1c2cc3ccccc3cc2N=C2N(c3ccccc3)CC[C@@]12O`, the IC50 in data set [1] was 7.97 µM. The same molecule yielded a solubility in data set [2] below 15 µM.

As for `O=C1c2cc3cc[nH]c3cc2N=C2N(c3ccccc3)CC[C@@]12O`, the IC50 in data set [1] is above 20 µM. This molecule also showed a solubility in data set [2] below 40 µM.
